In PubChem BioAssay (NCI):
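Grown in 96-well plates, cells were treated for 48 hours with each compound at five concentrations. Insufficient inhibition: endpoint recorded as highest concentration tested. TGI marks complete inhibition of growth.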

How the values were obtained:
Experiment in all cases: DTP human tumour cell line panel, 48 h
[1] = system: SF-295 CNS
[2] = system: MDA-MB-435
[3] = system: MALME-3M melanoma
[4] = system: OVCAR-4 ovarian
[5] = system: UACC-257 melanoma
[6] = system: A498 renal
[7] = system: OVCAR-3 ovarian
[8] = system: SNB-75 CNS
[9] = system: HS 578T breast
[10] = system: A549 NSCLC
[11] = system: RPMI-8226 leukemia
[12] = system: MDA-N
[13] = system: UO-31 renal
[14] = system: KM12 colon
[15] = system: HOP-92 NSCLC
[16] = system: SK-MEL-2 melanoma
[17] = system: MCF7 breast
[18] = system: BT-549 breast
[19] = system: SK-MEL-5 melanoma
[20] = system: SK-OV-3 ovarian
[21] = system: SW-620 colon
[22] = system: 786-0 renal
[23] = system: NCI-H23 lung
[24] = system: SNB-19 CNS
[25] = system: MOLT-4 leukemia
[26] = system: HL-60(TB) leukemia
[27] = system: OVCAR-8 ovarian
[28] = system: U251 CNS
[29] = system: SF-539 CNS
[30] = system: MDA-MB-231 breast
[31] = system: PC-3 prostate
[32] = system: HOP-62 NSCLC
[33] = system: HCT-116 colon
[34] = system: UACC-62 melanoma
[35] = system: K-562 leukemia
[36] = system: T-47D breast
[37] = system: CAKI-1 renal
[38] = system: HCT-15 colon
[39] = system: SF-268 CNS
[40] = system: ACHN renal
[41] = system: CCRF-CEM leukemia
[42] = system: HT29 colon
[43] = system: RXF 393 renal
[44] = system: TK-10 renal
[45] = system: NCI/ADR-RES ovarian
[46] = system: M14 melanoma
[47] = system: LOX IMVI melanoma
[48] = system: SK-MEL-28 melanoma
[49] = system: HCC-2998 colon
[50] = system: EKVX NSCLC
[51] = system: DU-145 prostate
[52] = system: NCI-H522 lung
[53] = system: NCI-H226 lung
[54] = system: NCI-H460 lung
[55] = system: OVCAR-5 ovarian
[56] = system: IGROV1 ovarian
[57] = system: SN12C renal
[58] = system: COLO 205 colon
[59] = system: SR leukemia

Measured: TGI

N#CCCN(CCCN(C(=O)N(c1ccccc1)c1ccccc1)c1ccccc1)C(=O)Nc1ccccc1
83.6 µM: [41]
45.1 µM: [26]
not listed: [56] | [57] | [58] | [59]
> 100 µM: all other assays above

NC(N)=NS(=O)(=O)c1ccc(Nc2c3ccccc3nc3c(C(=O)NNCCO)cccc23)cc1
0.354 µM: [33]
0.912 µM: [37]
0.303 µM: [18]
0.375 µM: [47]
0.278 µM: [19]
0.273 µM: [3]
0.456 µM: [46]
0.933 µM: [42]
0.434 µM: [56]
0.341 µM: [54]
0.287 µM: [14]
0.311 µM: [16]
0.671 µM: [26]
0.462 µM: [49]
0.296 µM: [36]
0.536 µM: [32]
0.28 µM: [23] | [52]
0.731 µM: [30]
0.422 µM: [35]
0.269 µM: [7] | [28]
0.241 µM: [17]
0.756 µM: [43]
0.42 µM: [11] | [53]
0.504 µM: [12]
0.351 µM: [58]
0.446 µM: [2]
0.377 µM: [21]
0.307 µM: [39]
not listed: [8] | [59]
> 1 µM: all other assays above

O=C(O)CN1CCNCCNCC1
68.5 µM: [26]
not listed: [1] | [3] | [23] | [39] | [43] | [49] | [52]
> 100 µM: all other assays above
